ChEMBL document CHEMBL4483862, “Open-source discovery of chemical leads for next-generation chemoprotective antimalarials” (2018)

Tested on: Plasmodium berghei
Assay: Luciferase/luciferin-expressing antifolate-resistant parasites were used to infect a culture of HepG2 cells that were pre-incubated with compounds. Infected hepatocytes emit light due to the luciferase reaction. Assay results are presented as the percent inhibition of light emission compared to control. […]
Format: functional
Conditions: sporozoite; for IC90: read-out: LUCIFERASE INFECTION ASSAY - IC90
[1] = read-out: LUCIFERASE INFECTION ASSAY - IC50

Compound	IC90 [µM]	other results
N#CC(C#N)=NNc1ccc(F)c(F)c1F	14.5	IC50 (PBLUC_HILL_SLOPE 9.99, PBLUC_R_SQUARED 0.46, read-out: LUCIFERASE INFECTION ASSAY - IC50): 11.6 µM
Cc1ccc(NCC(=O)c2ccc(-n3nncc3-c3ccccc3)cc2)cc1	> 10	IC50 [1]: > 10 µM
CCCOc1ccc(C(F)(F)F)cc1NC(=O)c1nc2nccc(C)n2n1	3	IC50 (PBLUC_HILL_SLOPE 0.895, PBLUC_R_SQUARED 0.844, read-out: LUCIFERASE INFECTION ASSAY - IC50): 0.258 µM
CC1CCN(C(=O)COC(=O)c2cc(-c3ccc(Cl)cc3)nc3ccccc23)c2ccccc2S1 (centres undefined)	> 10	IC50 (PBLUC_HILL_SLOPE 0.574, PBLUC_R_SQUARED 0.62, read-out: LUCIFERASE INFECTION ASSAY - IC50): 2.73 µM
CC(C)NC(=O)c1c(NC(=O)c2ccc(C(F)(F)F)cc2)nc2ccccn12	1.46	IC50 (FFLUC_HILL_SLOPE 4.65, FFLUC_R_SQUARED 0.42, HEPG2TOX_HILL_SLOPE 0.706, HEPG2TOX_R_SQUARED 0.931, PBLUC_HILL_SLOPE 2.98, PBLUC_R_SQUARED 0.635, read-out: LUCIFERASE INFECTION ASSAY - IC50): 0.698 µM
CNc1nc2cnc(Nc3ccc(OC)cc3C)cc2n1-c1cc(OC)c(OC)c(OC)c1	> 10	IC50 [1]: > 10 µM
Nc1nc(CNC(c2ccccc2)c2ccc(Cl)cc2)nc(Nc2ccccc2)n1 (centres undefined)	> 10	IC50 (FFLUC_HILL_SLOPE 14.9, FFLUC_R_SQUARED 0.741, read-out: LUCIFERASE INFECTION ASSAY - IC50): > 10 µM
Cn1c(SCc2nc3ccc(Cl)cc3n2CCO)nc2scc(-c3ccc(F)cc3)c2c1=O	3.59	IC50 (PBLUC_HILL_SLOPE 30.6, PBLUC_R_SQUARED 0.504, read-out: LUCIFERASE INFECTION ASSAY - IC50): 3.34 µM
CNc1cc(Nc2cc(C)c(Oc3cccc(C(C)(C)C)c3)cc2C)ncn1	8.49	IC50 (FFLUC_HILL_SLOPE 11.3, FFLUC_R_SQUARED 0.0353, HEPG2TOX_HILL_SLOPE 16.8, HEPG2TOX_R_SQUARED 0.912, PBLUC_HILL_SLOPE 9.72, PBLUC_R_SQUARED 0.605, read-out: LUCIFERASE INFECTION ASSAY - IC50): 6.77 µM
Cc1ccc(NC(=S)N/N=C2\C(=O)Nc3ccc([N+](=O)[O-])cc32)cc1	> 10	IC50 (PBLUC_HILL_SLOPE 14.8, PBLUC_R_SQUARED 0.511, read-out: LUCIFERASE INFECTION ASSAY - IC50): 8.89 µM
CC(C)Cc1nc(N2CCN(C(=O)c3ccco3)CC2)c(C#N)c2c1CCCC2	3.93	IC50 [1]: 3.18 µM
CCN(C(=O)COC(=O)c1nc(-c2ccccc2)n2c1CCCCC2)c1ccccc1	> 10	IC50 [1]: > 10 µM
COc1ccc(NC(=O)Nc2ccc3nc(-c4ccccc4OC)nn3c2)cc1OC	> 10	IC50 [1]: > 10 µM
O=S(=O)(c1ccc(Cl)c(NC(=S)N/N=C/c2ccc(O)cc2O)c1)N1CCOCC1	8.73	IC50 (HEPG2TOX_HILL_SLOPE 2.35, HEPG2TOX_R_SQUARED 0.922, PBLUC_HILL_SLOPE 5.37, PBLUC_R_SQUARED 0.597, read-out: LUCIFERASE INFECTION ASSAY - IC50): 5.8 µM
COc1ccccc1N(C)S(=O)(=O)c1ccc(C(=O)NNC(=O)c2nn(C)c(=O)c3ccccc23)cc1	> 10	IC50 (HEPG2TOX_HILL_SLOPE 7.89, HEPG2TOX_R_SQUARED 0.384, read-out: LUCIFERASE INFECTION ASSAY - IC50): > 10 µM
Brc1cc2c(cc1CSc1ncnc3ccccc13)OCO2	1.53	IC50 (HEPG2TOX_HILL_SLOPE 1.93, HEPG2TOX_R_SQUARED 0.941, PBLUC_HILL_SLOPE 155, PBLUC_R_SQUARED 0.104, read-out: LUCIFERASE INFECTION ASSAY - IC50): 1.51 µM
c1ccc(-c2csc3nc(CN4CCOCC4)nc(NCc4cnn(-c5ccccc5)c4)c23)cc1	> 10	IC50 [1]: > 10 µM
COc1cccc(-c2cc3c(Nc4cccc(OC(C)C)c4)nccc3n2C)c1	> 10	IC50 (PBLUC_HILL_SLOPE 2.76, PBLUC_R_SQUARED 0.246, read-out: LUCIFERASE INFECTION ASSAY - IC50): 6.87 µM
CCN(CC)c1ccc(/C=N/NC(=S)NC(C)C)c(O)c1	> 10	IC50 (PBLUC_HILL_SLOPE 3.12, PBLUC_R_SQUARED 0.566, read-out: LUCIFERASE INFECTION ASSAY - IC50): 7.29 µM
O=c1cc(N2CCCN(c3ccc(C(F)(F)F)cn3)CC2)nc2ccccn12	> 10	IC50 (PBLUC_HILL_SLOPE 2.47, PBLUC_R_SQUARED 0.397, read-out: LUCIFERASE INFECTION ASSAY - IC50): 5.84 µM
O=C(c1c[nH]c2ccccc12)N1CCC(Cc2ccccc2)CC1	> 10.4	IC50 [1]: > 10.4 µM

Compound	IC90 [µM]	other results
CNC(=O)N(C1=NCC(C)(C)S1)c1cccc(C(F)(F)F)c1	> 9.96	IC50 (HEPG2TOX_HILL_SLOPE 2.33, HEPG2TOX_R_SQUARED 0.841, PBLUC_HILL_SLOPE 2.51, PBLUC_R_SQUARED 0.0629, read-out: LUCIFERASE INFECTION ASSAY - IC50): 7.95 µM
Cc1cc2occ(CC(=O)Nc3sccc3C(N)=O)c2cc1C(C)C	4.1	IC50 (HEPG2TOX_HILL_SLOPE 3.18, 2.30, HEPG2TOX_R_SQUARED 0.297, 0.732, PBLUC_HILL_SLOPE 15.1, PBLUC_R_SQUARED 0.252, read-out: LUCIFERASE INFECTION ASSAY - IC50): 3.55 µM
COc1ccc(-c2cnc3cnc(-c4ccc(N)nc4)cn23)cn1	9.27	IC50 (PBLUC_HILL_SLOPE 29.9, PBLUC_R_SQUARED 0.596, read-out: LUCIFERASE INFECTION ASSAY - IC50): 8.62 µM
CCc1sc2nc(SCc3cc(=O)n4cc(Br)ccc4n3)n(-c3cccc(OC)c3)c(=O)c2c1C	> 10	IC50 [1]: > 10 µM
Cc1ccc(-c2noc(CCC(=O)N3CCN(C/C=C/c4ccccc4)CC3)n2)cc1	> 10	IC50 (HEPG2TOX_HILL_SLOPE 6.22, HEPG2TOX_R_SQUARED 0.551, PBLUC_HILL_SLOPE 3.17, PBLUC_R_SQUARED 0.265, read-out: LUCIFERASE INFECTION ASSAY - IC50): 5.07 µM
Cc1ccc(Sc2nc(-c3cccs3)ns2)cc1	> 11.4	IC50 (PBLUC_HILL_SLOPE 0.427, PBLUC_R_SQUARED 0.742, read-out: LUCIFERASE INFECTION ASSAY - IC50): 0.259 µM
COc1ccc(-c2nnc(SCn3nnc4ccccc4c3=O)n2-c2ccccc2C(C)C)cc1	> 10	IC50 (FFLUC_HILL_SLOPE 2.15, FFLUC_R_SQUARED 0.39, read-out: LUCIFERASE INFECTION ASSAY - IC50): > 10 µM
COc1ccc(/C=C2\N=C(SCc3cn4ccsc4n3)N(c3cc(C)cc(C)c3)C2=O)cc1	> 10	IC50 (HEPG2TOX_HILL_SLOPE 2.87, HEPG2TOX_R_SQUARED 0.677, PBLUC_HILL_SLOPE 15.6, PBLUC_R_SQUARED 0.508, read-out: LUCIFERASE INFECTION ASSAY - IC50): 9.65 µM
CN(C)CCNC(=O)c1ccc(-c2cn3c(-c4cccc(Cl)c4)cnc3cn2)cc1	> 7.86	IC50 [1]: > 7.86 µM
Cc1nc(C2CC2)nc2sc(-c3nc(-c4cccs4)no3)c(N)c12	> 10	IC50 (PBLUC_HILL_SLOPE 2.09, PBLUC_R_SQUARED 0.41, read-out: LUCIFERASE INFECTION ASSAY - IC50): 4.67 µM
O=C(NC1CCCC1)c1ccc(-c2cn3c(-c4ccc(CO)cc4)cnc3cn2)cc1	7.79	IC50 (PBLUC_HILL_SLOPE 20, PBLUC_R_SQUARED 0.468, read-out: LUCIFERASE INFECTION ASSAY - IC50): 6.98 µM
C[n+]1c(-c2ccccc2)cc(CCCCc2cc(-c3ccccc3)[n+](C)c(-c3ccccc3)c2)cc1-c1ccccc1	> 10	IC50 (HEPG2TOX_HILL_SLOPE 8.54, HEPG2TOX_R_SQUARED 0.649, PBLUC_HILL_SLOPE 17.9, PBLUC_R_SQUARED 0.599, read-out: LUCIFERASE INFECTION ASSAY - IC50): 9.47 µM
CC1(C)CCc2cc(-c3ccnc(S)n3)ccc2O1	> 12.1	IC50 (FFLUC_HILL_SLOPE 9.25, FFLUC_R_SQUARED 0.0162, PBLUC_HILL_SLOPE 0.814, PBLUC_R_SQUARED 0.637, read-out: LUCIFERASE INFECTION ASSAY - IC50): 1.38 µM
CC(C)(C)c1cnnn1-c1ccc(C(=O)/C=C/c2ccccc2)cc1	> 10	IC50 [1]: > 10 µM
Cc1ccccc1-c1cn2c(-c3ccc4c(c3)OCO4)cnc2cn1	0.821	IC50 (HEPG2TOX_HILL_SLOPE 0.84, HEPG2TOX_R_SQUARED 0.902, PBLUC_HILL_SLOPE 1.93, PBLUC_R_SQUARED 0.734, read-out: LUCIFERASE INFECTION ASSAY - IC50): 0.263 µM
O=C(Nc1ccc([N+](=O)[O-])cc1)Nc1cccnc1Cl	2.05	IC50 (PBLUC_HILL_SLOPE 2.35, PBLUC_R_SQUARED 0.752, read-out: LUCIFERASE INFECTION ASSAY - IC50): 0.807 µM
O=C(NCCC1=CCCCC1)Nc1ccc(OC(F)(F)F)cc1	> 10.1	IC50 (PBLUC_HILL_SLOPE 77.5, PBLUC_R_SQUARED 0.175, read-out: LUCIFERASE INFECTION ASSAY - IC50): > 10.1 µM
N#C/C(=N\Nc1cc(C(F)(F)F)ccc1OCC(F)(F)F)S(=O)(=O)c1ccccc1	0.397	IC50 (HEPG2TOX_HILL_SLOPE 2.04, HEPG2TOX_R_SQUARED 0.948, PBLUC_HILL_SLOPE 1.99, PBLUC_R_SQUARED 0.732, read-out: LUCIFERASE INFECTION ASSAY - IC50): 0.131 µM
CC(C)Cn1c(SCC(=O)Nc2ccccc2C(=O)OC2CC(C)CCC2C(C)C)nnc1-c1cccc(S(=O)(=O)N2CCOCC2)c1 (centres undefined)	> 10	IC50 (PBLUC_HILL_SLOPE 3.05, PBLUC_R_SQUARED 0.72, read-out: LUCIFERASE INFECTION ASSAY - IC50): 5.79 µM
CCc1nnc(Sc2ncnc3ccsc23)[nH]1	> 10	IC50 [1]: > 10 µM
Cc1nn(Cc2nnc(SCc3cccc(C(F)(F)F)c3)o2)c(C)c1Br	> 7.38	IC50 [1]: > 7.38 µM
